By logD is commonly meant the decadic logarithm of the distribution of all forms, ionised or not, between an organic phase and buffer at a given pH. Low readings indicate lower lipophilicity, high ones higher lipophilicity.

Data set [1] can be described thus: Ratio of drug level in thalamus to cerebellum in baboon after 180 mins. In kind it is ADME, tissue-based. The settings on record: papio hamadryas, in vivo, 3 h.
Data set [2] in a line: Ratio of drug level in frontal cortex to cerebellum in baboon after 180 mins. The format is ADME, tissue-based. The conditions noted are these: papio hamadryas, in vivo, 3 h.
Data set [3] in a line: Ratio of drug level in pans to cerebellum in baboon after 180 mins. In kind it is ADME, tissue-based. The settings on record: papio hamadryas, in vivo, 3 h.
A short description of data set [4]: Ratio of drug level in thalamus to cerebellum in Wistar rat after 90 mins. In kind it is ADME, tissue-based. The conditions noted are these: in vivo, 1.5 h.
The nature of another data set: physchem. The conditions noted are these: octanol/water, pH 7.4.
Data set [5] has as its system Mus musculus. Kind of data set: Toxicity assessed as induction of death in CD1 mouse at 2 umol/kg. The settings on record: in vivo. In kind it is organism-based.
The test system of data set [6] is Mus musculus. Kind of data set: Induction of straub tail in CD1 mouse at 2 umol/kg. The format is functional, organism-based.
Data set [7] deals with Mus musculus. Description: Induction of fast breathing in CD1 mouse at 2 umol/kg. The format is functional, organism-based.

SMILES strings stand for the structures. The source made the active and inactive calls. The rule behind the calls is not given here.

Description for physchem: Distribution coefficient, log D at pH 7.4 by shake-flask method

As to `CN1[C@@H]2CC[C@@H]1[C@@H](c1cncc(-c3ccc([18F])nc3)c1)C2`, the Ratio in data set [1] is recorded as 6; in data set [2] it was 2.4; in data set [3] it was 2.4.

In the case of `[11CH3]N1[C@@H]2CC[C@@H]1[C@@H](c1cnc(Cl)c(-c3ccnc(F)c3)c1)C2`, the Ratio in data set [4] is listed as 6.5.

Consider `Fc1ccc(-c2cc([C@H]3C[C@H]4CC[C@H]3N4)cnc2Cl)cn1` (racemic), for which the logD in the data set “physchem” was determined as 0.68.

Molecule `CN1[C@@H]2CC[C@@H]1[C@@H](c1cnc(F)c(-c3ccc(F)nc3)c1)C2` (racemic) displayed a logD in “physchem” of 0.96.

The molecule `CN1[C@@H]2CC[C@@H]1[C@@H](c1cncc(-c3ccc(F)nc3)c1)C2` (racemic) returned a logD in the data set “physchem” of 0.45.

Molecule `CN1[C@@H]2CC[C@@H]1[C@@H](c1cnc(F)c(-c3ccc(C#N)nc3)c1)C2` (racemic) yielded a log distribution coefficient (logD) in “physchem” of 0.64.

Consider `CN1[C@@H]2CC[C@@H]1[C@@H](c1cnc(Cl)c(-c3ccnc(F)c3)c1)C2` (racemic), for which the logD in the data set “physchem” is 1.26.

On to `[11CH3]N1[C@@H]2CC[C@@H]1[C@@H](c1cnc(Cl)c(-c3ccnc(F)c3)c1)C2` (racemic), for which the Ratio in data set [4] was 2.2.

In turn, `CN1[C@@H]2CC[C@@H]1[C@@H](c1cnc(Cl)c(-c3ccc(F)nc3)c1)C2` (single isomer, unassigned) showed a logD in the data set “physchem” of 1.42.

With `CN1[C@@H]2CC[C@@H]1[C@@H](c1cncc(-c3ccc(F)nc3)c1)C2` (stereo in doubt; (-)-24d) [listing 1 of 2 here], in the data set on Mus musculus [5], the Activity entry is reported as “Non-toxic”.

For `CN1[C@@H]2CC[C@@H]1[C@@H](c1cncc(-c3ccc(F)nc3)c1)C2` (stereo in doubt; (-)-24d) [listing 2 of 2 here], the outcome in the data set with Mus musculus [6] and with Mus musculus [7] was Active.
